Patent publication US6710048B2, “Pyrazine derivatives as modulators of tyrosine kinases” (Ortho-McNeil Pharmaceutical, Inc., priority 2000, dated 2004)
Like-named read-outs stand apart in the source and are kept apart here.

Assays:
[1] = molecular target: T1, VEGF-R (vascular endothelial growth factor receptor-2) (Rattus norvegicus, UniProt O08775); assay: VEGF-R screening assay (33P FlashPlate kinase assay); format: biochemical
T1 construct: polyhistidine (6xHis) (N)
Procedure: A kinase reaction mixture was prepared containing 50 mM Tris-HCl pH=8, 10 mM MgCl2, 0.1 mM NAPO4, 1 mM DTT, 10 μM ATP, 0.025 μM biotinylated peptide substrate and 0.8 μCuries per well ^33P-γ-ATP [2000-3000 Ci/mmol]. 70 μl of the kinase reaction mixture was dispensed into the well of a streptavidin coated FlashPlate™ (Cat. # SMP103, NEN, Boston, Mass.). Then 1 μl of test compound stock in 100% DMSO was added to the wells resulting in a final concentration of 1% DMSO in the reaction with a 100 μl final reaction volume. Next, soluble rat tyrosine kinase containing an N-terminal 6×HIS tag was diluted in 50 mM Tris-HCl pH=8.0, 0.1% BSA at a concentration of 5 ng per microliter and 30 μl (150 ng enzyme per test well) was added to each well to initiate the reaction. The reaction was incubated for one hour at 30° C. At the end of the 1-hour incubation, the reaction was terminated by aspirating the reaction mixture from the plate and washing the wells twice with PBS containing 100 mM EDTA. The PLCI biotinylated peptide substrate becomes immobilized on the Flashplate™ and the incorporation of ^33P-γ-ATP was measured by reading the plate on a scintillation counter. Inhibition of the enzymatic activity of the VEGF-R was measured by observing a reduced amount of ^33P-γ-ATP incorporated into the immobilized peptide.
The term n.d. means not tested.
Assays to test compound inhibition of other kinases were preformed using methods that measure the amount of phosphorylation of a biotinylated peptide substrate. Biotinylated peptide substrates were selected from the literature as appropriate for the enzyme being evaluated. The general procedure used to assay for kinase activity is as follows: A kinase reaction mix was prepared in 50 mM Tris-HCl pH=8, 10 mM MgCl2, 0.1 mM NaVO4, 1 mM DTT, 5-10 μM ATP, 0.25-1 μM biotinylated peptide substrate, 0.2-0.8 μCuries per well ^33P-γ-ATP [2000-3000 Ci/mmol]. Assay conditions vary slightly for each protein kinase, for example, insulin receptor kinase requires 10 mM MnCl2 for activity and Calmodulin-dependent protein kinase requires calmodulin and 2 mM CaCl2. The reaction mixture was dispensed into the wells of a streptavidin coated Flashplate and 1 μl drug stock in 100% DMSO was added to a 100 μl reaction volume resulting in a final concentration of 1% DMSO in the reaction. Enzyme was diluted in 50 mM Tris-HCl pH=8.0, 0.1% BSA and added to each well. The reaction was incubated for one hour at 30° C. in the presence of compound. After one hour the reaction mix was aspirated from the plate and the plate was washed with PBS containing 100 mM EDTA. The plate was read on a scintillation counter to determine ^33P-γ-ATP incorporated into the immobilized peptide. Test compounds were assayed in duplicate at 8 concentrations [100 tM, 10 μM, 1 μM, 100 nM, 10 nM, 1 nM, 100 μM, 10 μM]. A maximum and minimum signal for the assay was determined on each plate. The IC50 was calculated from the dose response curve of the percent inhibition of the maximum signal in the assay according to the formula [max signal−background/test compound signal−background (100)=% inhibition] by graphing the percent inhibition against the log concentration of test compound. Known inhibitor compounds appropriate for the kinase being assayed were also included on each plate.
VEGF-R (vascular endothelial growth factor receptor-2) is a fusion protein containing a polyhistidine tag at the N-terminus followed by amino acids 786-1343 of the rat VEGF-R2 kinase domain (GenBank Accession #U93306). CDK1 (cyclin dependent kinase 1) is isolated from insect cells expressing both the human CDK1 catalytic subunit and its positive regulatory subunit cyclin B (New England Biolabs, Beverly, Mass., Cat. #6020). CDK4 (cyclin dependent kinase 4) contains amino acids 769 to 921 of the mouse […] protein found in the GST-retinoblastoma protein construct (Santa Cruz Biotechnology, Santa Cruz, Calif.; Cat. #SC-4112). […]

[2] = molecular target: T2, Calmodulin Kinase (calmodulin-dependent protein kinase 2) (Rattus norvegicus, UniProt P11275); assay: Calmodulin Kinase selectivity assay; format: biochemical; conditions: Table 4 kinase selectivity; read-out: IC50, Assay 10 Calmodulin Kinase
T2 construct: a truncated version of the alpha subunit of the rat protein; purchased New England Biolabs 6060; host or cells: insect cells

[3] = Table 4 kinase selectivity, read-out: IC50, Assay 1 VEGF-R
[4] = Tables 1-3, >10 or >100 = no 50% inhibition at highest dose tested, read-out: VEGF-R IC50

T1 sequence (O08775 786-1343): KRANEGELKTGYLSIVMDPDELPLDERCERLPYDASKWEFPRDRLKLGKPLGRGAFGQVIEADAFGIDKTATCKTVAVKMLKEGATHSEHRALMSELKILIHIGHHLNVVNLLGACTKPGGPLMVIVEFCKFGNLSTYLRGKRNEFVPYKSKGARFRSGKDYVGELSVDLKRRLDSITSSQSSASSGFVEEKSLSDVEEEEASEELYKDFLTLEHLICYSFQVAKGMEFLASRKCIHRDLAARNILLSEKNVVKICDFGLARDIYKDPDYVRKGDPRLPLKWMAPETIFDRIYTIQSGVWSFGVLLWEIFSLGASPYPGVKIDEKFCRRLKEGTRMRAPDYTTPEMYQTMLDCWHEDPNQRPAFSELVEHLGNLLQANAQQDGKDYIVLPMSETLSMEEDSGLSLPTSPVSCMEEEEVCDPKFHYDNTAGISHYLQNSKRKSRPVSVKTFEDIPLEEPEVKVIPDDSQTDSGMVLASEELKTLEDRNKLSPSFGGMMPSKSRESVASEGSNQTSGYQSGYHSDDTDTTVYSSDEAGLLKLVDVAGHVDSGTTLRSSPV
T2 sequence (P11275 1-325): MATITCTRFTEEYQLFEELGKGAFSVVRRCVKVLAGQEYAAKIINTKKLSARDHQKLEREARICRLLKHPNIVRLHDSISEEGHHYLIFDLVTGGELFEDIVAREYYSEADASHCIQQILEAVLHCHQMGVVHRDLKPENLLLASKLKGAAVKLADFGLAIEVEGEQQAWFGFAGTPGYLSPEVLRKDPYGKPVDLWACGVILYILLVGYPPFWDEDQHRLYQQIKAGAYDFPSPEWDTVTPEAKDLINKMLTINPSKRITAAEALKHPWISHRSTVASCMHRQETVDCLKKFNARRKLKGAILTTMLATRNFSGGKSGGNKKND

Structure (SMILES) | IC50 [1, 3] | IC50 [1, 4] | IC50 [2]
O=C(NCCCO)c1cncc(-c2cncc(Nc3cccc(Cl)c3)n2)c1 [Cmd 39] | 2500 nM | 2500 nM | > 100000 nM
Clc1cccc(Nc2cncc(-c3cncc(NCCCn4cncn4)c3)n2)c1 [Cmd 76] | 52 nM | 52 nM | 15800 nM
Clc1cccc(Nc2cncc(-c3cncc(NCCCc4ccncc4)c3)n2)c1 [Cmd 71] | 52 nM | 52 nM | 4890 nM
Clc1cccc(Nc2cncc(-c3cncc(NCCCc4cccnc4)c3)n2)c1 [Cmd 72] | 89 nM | 89 nM | > 100000 nM
Clc1cccc(Nc2cncc(-c3cncc(NCCCN4CCCCC4)c3)n2)c1 [Cmd 73] | 105 nM | 105 nM | 7550 nM
Clc1cccc(Nc2cncc(-c3cncc(NCCCn4cccn4)c3)n2)c1 [Cmd 75] | 79 nM | 79 nM | 27000 nM
CN(C)CCCNc1cncc(-c2cncc(Nc3cccc(Cl)c3)n2)c1 [Cmd 35] | 94 nM | 90 nM | > 100000 nM

Second part, the compound after the results:

IC50 [1, 3] | IC50 [1, 4] | IC50 [2] | Structure (SMILES)
70 nM | 70 nM | > 100000 nM | CN(C)CCNc1cncc(-c2cncc(Nc3cccc(Cl)c3)n2)c1 [Cmd 33, N′-[5-[6-[(3-chlorophenyl)amino]pyrazinyl]-3-pyridinyl]-N^2,N^2-dimethyl-1,2-ethanediamine]
59 nM | 60 nM | > 100000 nM | OCCCCNc1cncc(-c2cncc(Nc3cccc(Cl)c3)n2)c1 [Cmd 32]
42 nM | 80 nM | > 100000 nM | OCCCNc1cncc(-c2cncc(Nc3cccc(Cl)c3)n2)c1 [Cmd 4]
